In patent US7781470B2, “Aminodicarboxylic acid derivatives having pharmaceutical properties” (Bayer Schering Pharma Aktiengesellschaft, priority 1999, dated 2010):
Where a name gives a salt, the structure may show the parent alone. Values belong to the compound of their own block, whether it stands above or below them.

Columns and labels:
[1] = system: arteria saphena rings; assay: Vasal relaxant action in vitro (phenylephrin-contracted artery rings); type: cell-based, Rabbits; conditions: Oryctolagus cuniculus; concentration reducing phenylephrin-induced contraction by 50%; rabbit arteria saphena rings; read-out: IC50 vasorelaxant action in vitro
Protocol: Rabbits are anaesthetized by intravenous injection of thiopental sodium […] (about 50 mg/kg) and exsanguinated. The arteria saphena is removed and divided into 3 mm wide rings. The rings are individually mounted on in each case one triangular pair of hooks, open at the end, made of 0.3 mm strong special wire (Remanium®). Under a pretension, each ring is transferred into 5 ml organ baths containing a warm, carbogen-aerated Krebs-Henseleit solution at 37° C. having the following composition (mM): NaCl: 119; KCl: 4.8; CaCl2×2H2O: 1; MgSO4×7 H2O: 1.4; KH2PO4: 1.2; NaHCO3: 25; glucose: 10; bovine serum albumin: 0.001%. The contractility is detected using Statham UC2 cells, amplified and digitalized by means of A/D converters (DAS-1802 HC, Keithley Instruments Munich), and recorded in parallel on linear recorders. Contractions are induced by addition of phenylephrin.
After several (in general 4) control cycles, the substance to be investigated is added in each further passage in increasing dosage, and the height of the contraction achieved under the influence of the test substance is compared with the height of the contraction achieved in the last preliminary passage. From this, the concentration which is necessary in order to reduce the contraction achieved in the preliminary control by 50% ((IC50) is calculated. The standard administration volume is 5 μl. The proportion of DMSO in the bath solution corresponds to 0.1%.

[2] = molecular target: T1, Haem-free sGC (recombinant soluble guanylate cyclase) (Rattus norvegicus, UniProt P20595); assay: Stimulation of recombinant soluble guanylate cyclase (sGC) in vitro, haem-free enzyme; type: biochemical; conditions: for Stimulation (n-fold), haem-free sGC, basal: Tween 20 0.5%
T1 construct: made in house
T1 sequence (P20595 1-619): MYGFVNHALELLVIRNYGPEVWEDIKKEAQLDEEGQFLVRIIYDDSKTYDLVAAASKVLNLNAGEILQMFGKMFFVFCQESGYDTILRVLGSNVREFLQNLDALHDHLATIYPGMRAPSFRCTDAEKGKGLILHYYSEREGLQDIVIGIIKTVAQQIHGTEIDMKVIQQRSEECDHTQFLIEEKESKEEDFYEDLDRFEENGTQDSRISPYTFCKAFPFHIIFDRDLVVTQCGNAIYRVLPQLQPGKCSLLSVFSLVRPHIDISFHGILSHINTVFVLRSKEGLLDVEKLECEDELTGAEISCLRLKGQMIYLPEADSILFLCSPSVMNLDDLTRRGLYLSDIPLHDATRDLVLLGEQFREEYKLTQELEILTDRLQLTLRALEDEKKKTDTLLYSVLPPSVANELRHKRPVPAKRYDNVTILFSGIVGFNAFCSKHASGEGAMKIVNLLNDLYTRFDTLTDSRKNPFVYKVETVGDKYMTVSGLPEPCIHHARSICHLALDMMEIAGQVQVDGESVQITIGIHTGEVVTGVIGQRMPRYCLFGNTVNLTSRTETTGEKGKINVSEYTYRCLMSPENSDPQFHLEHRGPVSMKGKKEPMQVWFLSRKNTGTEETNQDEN
T1 sequence (P19686 1-690 partner): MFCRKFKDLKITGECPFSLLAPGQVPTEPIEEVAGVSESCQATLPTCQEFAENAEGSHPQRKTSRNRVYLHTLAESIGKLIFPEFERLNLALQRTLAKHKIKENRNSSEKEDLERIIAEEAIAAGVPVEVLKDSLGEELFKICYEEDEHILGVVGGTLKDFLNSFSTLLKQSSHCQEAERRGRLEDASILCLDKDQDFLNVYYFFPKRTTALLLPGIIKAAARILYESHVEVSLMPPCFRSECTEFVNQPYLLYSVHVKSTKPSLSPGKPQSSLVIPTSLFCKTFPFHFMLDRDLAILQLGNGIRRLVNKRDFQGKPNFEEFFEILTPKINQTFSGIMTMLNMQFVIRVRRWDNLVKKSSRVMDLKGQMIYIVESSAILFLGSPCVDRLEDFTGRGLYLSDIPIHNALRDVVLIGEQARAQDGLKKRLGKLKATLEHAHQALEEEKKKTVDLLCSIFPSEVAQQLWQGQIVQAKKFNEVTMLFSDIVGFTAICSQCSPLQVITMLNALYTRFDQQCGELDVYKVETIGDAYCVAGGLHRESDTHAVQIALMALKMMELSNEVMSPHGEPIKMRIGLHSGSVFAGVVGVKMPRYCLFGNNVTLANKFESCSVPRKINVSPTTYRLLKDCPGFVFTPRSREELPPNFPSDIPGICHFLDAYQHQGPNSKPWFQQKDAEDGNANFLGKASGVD
Protocol: (§1) The investigations on the stimulation of recombinant soluble guanylate cyclase (sGC) and the compounds according to the invention with and without sodium nitroprusside and with and without the haem-dependent sGC inhibitor 1H-1,2,4-oxadiazole-(4,3a)-quinoxalin-1-one (ODQ) were carried out by the method described in detail in the following literature reference: M. Hoenicka, E. M. Becker, H. Apeler, T. Sirichoke, H. Schroeder, R. Gerzer and J.-P. Stasch: Purified soluble guanylyl cyclase expressed in a baculovirus/Sf9 system: stimulation by YC-1, nitric oxide, and […]. J. Mol. Med. 77 (1999): 14-23.
Haem-free guanylate cyclase was obtained by adding Tween 20 to the sample buffer (final concentration 0.5%).
(§2) Activation of sGC by a test substance is stated as n-fold stimulation of basal activity.

[3] = molecular target: T2, Haem-containing sGC (recombinant soluble guanylate cyclase) (Rattus norvegicus, UniProt P20595); assay: Stimulation of recombinant soluble guanylate cyclase (sGC) in vitro, haem-containing enzyme; type: biochemical
T2 construct: made in house
T2 sequence (P20595 1-619): T1 sequence (P20595 1-619)
T2 sequence (P19686 1-690 partner): T1 sequence (P19686 1-690 partner)
Protocol: as §1, §2

[4] = 0.1 μM test compound + ODQ 10 μM
[5] = 1.0 μM test compound + ODQ 10 μM
[6] = 10 μM test compound + ODQ 10 μM
[7] = ODQ 10 μM, Ex. 87 concentration 0

Structure (SMILES): O=C(O)CCCCN(CCc1ccccc1OCc1ccc(CCc2ccccc2)cc1)Cc1ccc(C(=O)O)cc1 [Example 8, 4-[((4-Carboxybutyl)-{2-[(4-phenethylbenzyl)oxy]phenethyl}amino)-methyl]benzoic Acid Hydrochloride]
IC50 [1]: 0.4 nM

Structure (SMILES): O=C(O)CCCCN(CCc1ccccc1OCc1ccc(Oc2ccc(Cl)cc2)cc1)Cc1ccc(C(=O)O)cc1 [Example 28]
IC50 [1]: 2.8 nM

Structure (SMILES): CC(C)(C)c1ccc(COc2ccccc2CCN(CCCCC(=O)O)Cc2ccc(C(=O)O)cc2)cc1 [Example 30]
IC50 [1]: 17 nM

Structure (SMILES): O=C(O)CCCCN(CCc1ccccc1OCc1ccc(OCc2ccccc2)cc1)Cc1ccc(C(=O)O)cc1 [Example 32]
IC50 [1]: 6.5 nM

Structure (SMILES): O=C(O)CCCCN(CCc1ccccc1OCc1ccc(/C=C/c2ccccc2)cc1)Cc1ccc(C(=O)O)cc1 [Example 33]
IC50 [1]: 0.5 nM

Structure (SMILES): C#CCOc1ccccc1CCN(CCCCC(=O)O)Cc1ccc(C(=O)O)cc1 [Example 37]
IC50 [1]: 830 nM

Structure (SMILES): O=C(O)CCCCCN(CCc1ccccc1OCc1ccc(-c2ccccc2)cc1)Cc1ccc(C(=O)O)cc1 [Example 56]
IC50 [1]: 73 nM

Structure (SMILES): O=C(O)CCCCN(CCc1ccccc1OCc1ccc(C2CCCCC2)cc1)Cc1ccc(C(=O)O)cc1 [Example 70]
IC50 [1]: 0.2 nM

Structure (SMILES): O=C(O)CCCCN(CCc1ccccc1OCc1ccc(-c2csc(C(F)(F)F)n2)cc1)Cc1ccc(C(=O)O)cc1 [Example 72]
IC50 [1]: 29 nM

Other lines, results leading:

IC50 [1]: 29 nM
Structure (SMILES): O=C(O)CCCCN(CCc1ccccc1OCc1ccc2c(c1)CCCC2)Cc1ccc(C(=O)O)cc1 [Example 76]

IC50 [1]: 0.4 nM
Structure (SMILES): O=C(O)CCCCN(CCc1ccccc1OCc1ccc(Oc2ccc(C(F)(F)F)cc2)cc1)Cc1ccc(C(=O)O)cc1 [Example 86]

Stimulation (n-fold), haem-free sGC, +ODQ (10 μM) [2, 4]: 361 n-fold
Stimulation (n-fold), haem-free sGC, basal ([2]; 0.1 μM test compound): 353 n-fold
Stimulation (n-fold), haem-free sGC, +ODQ (10 μM) [2, 5]: 457 n-fold
Stimulation (n-fold), haem-free sGC, basal ([2]; 1.0 μM test compound): 491 n-fold
Stimulation (n-fold), haem-free sGC, +ODQ (10 μM) [2, 6]: 477 n-fold
Stimulation (n-fold), haem-free sGC, basal ([2]; 10 μM test compound): 529 n-fold
Stimulation (n-fold), haem-containing sGC, +ODQ (10 μM) [3, 4]: 132 n-fold
Stimulation (n-fold), haem-containing sGC, +SNP (0.1 μM) ([3]; 0.1 μM test compound + SNP 0.1 μM): 41 n-fold
Stimulation (n-fold), haem-containing sGC, basal ([3]; 0.1 μM test compound, n-fold stimulation of basal activity): 15 n-fold
Stimulation (n-fold), haem-containing sGC, basal ([3]; 1.0 μM test compound): 18 n-fold
Stimulation (n-fold), haem-containing sGC, +ODQ (10 μM) [3, 5]: 115 n-fold
Stimulation (n-fold), haem-containing sGC, +SNP (0.1 μM) ([3]; 1.0 μM test compound + SNP 0.1 μM): 47 n-fold
Stimulation (n-fold), haem-containing sGC, basal ([3]; 10 μM test compound): 24 n-fold
Stimulation (n-fold), haem-containing sGC, +ODQ (10 μM) [3, 6]: 181 n-fold
Stimulation (n-fold), haem-containing sGC, +SNP (0.1 μM) ([3]; 10 μM test compound + SNP 0.1 μM): 60 n-fold
IC50 [1]: 0.5 nM
Structure (SMILES): O=C(O)CCCCN(CCc1ccccc1OCc1ccc(-c2ccc(Cl)cc2)cc1)Cc1ccc(C(=O)O)cc1 [Example 87]

IC50 [1]: 0.4 nM
Structure (SMILES): COc1ccc(-c2ccc(COc3ccccc3CCN(CCCCC(=O)O)Cc3ccc(C(=O)O)cc3)cc2)cc1 [Example 88]

IC50 [1]: 3.4 nM
Structure (SMILES): O=C(O)c1ccc(CN(CCOc2ccc(C(=O)O)cc2)CCc2ccccc2OCCCCCc2ccccc2)cc1 [Example 98]

IC50 [1]: 0.2 nM
Structure (SMILES): O=C(O)c1ccc(CN(CCOc2ccc(C(=O)O)cc2)CCc2ccccc2OCc2ccc(C3CCCCC3)cc2)cc1 [Example 102]

IC50 [1]: 3.9 nM
Structure (SMILES): CCCCCCCCOc1ccccc1CCN(CCOc1ccc(C(=O)O)cc1)Cc1ccc(C(=O)O)cc1 [Example 103]

Stimulation (n-fold), haem-free sGC, ODQ alone [2, 7]: 1 n-fold
Stimulation (n-fold), haem-containing sGC, ODQ alone [3, 7]: 1 n-fold
Structure (SMILES): O=c1onc2cnc3ccccc3n12 [ODQ, 1H-1,2,4-oxadiazol-(4,3a)-quinoxalin-1-one, reference compound]
